What was measured:
Test in all cases: KINOMEscan (ScanMAX) kinase profiling
Type in all cases: binding
[1] = molecular target: T1, panel of 468 kinases (Homo sapiens, UniProt O60285); details: ARKS; 1 μM; read-out: % control
T1 construct: purchased KINOMEscan (ScanMAX) service
T1 sequence (O60285 1-661): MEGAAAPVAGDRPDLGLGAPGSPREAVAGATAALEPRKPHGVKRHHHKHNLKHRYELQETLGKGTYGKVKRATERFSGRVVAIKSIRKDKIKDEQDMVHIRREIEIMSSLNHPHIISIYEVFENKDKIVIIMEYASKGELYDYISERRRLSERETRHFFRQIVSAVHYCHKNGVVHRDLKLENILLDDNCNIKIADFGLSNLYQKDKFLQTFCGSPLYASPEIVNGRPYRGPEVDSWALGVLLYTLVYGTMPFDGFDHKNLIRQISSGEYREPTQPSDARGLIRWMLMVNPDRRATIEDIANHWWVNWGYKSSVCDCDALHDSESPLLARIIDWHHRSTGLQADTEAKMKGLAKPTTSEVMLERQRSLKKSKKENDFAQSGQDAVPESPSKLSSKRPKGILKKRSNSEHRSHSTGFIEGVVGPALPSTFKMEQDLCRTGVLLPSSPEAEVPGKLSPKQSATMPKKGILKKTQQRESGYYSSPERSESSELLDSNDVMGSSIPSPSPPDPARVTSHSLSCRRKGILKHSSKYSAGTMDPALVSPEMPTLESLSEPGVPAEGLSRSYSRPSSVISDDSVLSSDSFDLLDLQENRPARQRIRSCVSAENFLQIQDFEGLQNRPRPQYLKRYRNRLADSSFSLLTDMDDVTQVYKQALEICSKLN

[2] = molecular target: T2, panel of 468 kinases (Homo sapiens, UniProt P42336, C420R); details: PIK3CA(C420R); 1 μM; read-out: % control
T2 construct: purchased KINOMEscan (ScanMAX) service
T2 sequence (P42336 whole entry C420R): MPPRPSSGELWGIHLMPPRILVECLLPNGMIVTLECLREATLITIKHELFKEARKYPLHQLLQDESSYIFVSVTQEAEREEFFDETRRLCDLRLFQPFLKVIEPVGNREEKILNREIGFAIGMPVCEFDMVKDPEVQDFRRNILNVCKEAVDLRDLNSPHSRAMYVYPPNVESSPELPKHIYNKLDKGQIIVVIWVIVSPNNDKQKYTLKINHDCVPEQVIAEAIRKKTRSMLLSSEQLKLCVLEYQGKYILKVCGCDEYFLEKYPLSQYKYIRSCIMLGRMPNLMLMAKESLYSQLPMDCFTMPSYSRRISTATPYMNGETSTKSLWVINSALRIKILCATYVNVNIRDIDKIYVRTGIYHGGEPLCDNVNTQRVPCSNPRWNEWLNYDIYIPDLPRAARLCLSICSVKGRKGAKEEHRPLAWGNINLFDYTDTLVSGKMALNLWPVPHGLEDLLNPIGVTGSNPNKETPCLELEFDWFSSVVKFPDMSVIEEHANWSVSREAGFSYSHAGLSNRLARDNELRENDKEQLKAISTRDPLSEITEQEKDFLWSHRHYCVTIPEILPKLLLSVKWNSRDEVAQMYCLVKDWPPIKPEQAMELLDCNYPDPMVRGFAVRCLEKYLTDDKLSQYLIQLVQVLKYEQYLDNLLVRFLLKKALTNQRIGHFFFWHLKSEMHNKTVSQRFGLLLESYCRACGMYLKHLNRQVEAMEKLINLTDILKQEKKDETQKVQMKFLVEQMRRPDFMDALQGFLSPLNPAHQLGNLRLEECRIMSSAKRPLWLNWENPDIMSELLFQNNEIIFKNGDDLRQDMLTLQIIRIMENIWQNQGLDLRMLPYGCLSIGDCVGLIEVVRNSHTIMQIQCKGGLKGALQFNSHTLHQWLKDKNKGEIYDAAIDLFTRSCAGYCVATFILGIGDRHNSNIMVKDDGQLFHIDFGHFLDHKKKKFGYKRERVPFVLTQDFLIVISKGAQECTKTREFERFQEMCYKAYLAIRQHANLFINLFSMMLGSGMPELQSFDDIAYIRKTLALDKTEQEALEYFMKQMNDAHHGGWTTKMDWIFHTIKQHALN

[3] = molecular target: T3, panel of 468 kinases (Homo sapiens, UniProt Q8IW41); details: MAPKAPK5; 1 μM; read-out: % control
T3 construct: purchased KINOMEscan (ScanMAX) service
T3 sequence (Q8IW41 1-473): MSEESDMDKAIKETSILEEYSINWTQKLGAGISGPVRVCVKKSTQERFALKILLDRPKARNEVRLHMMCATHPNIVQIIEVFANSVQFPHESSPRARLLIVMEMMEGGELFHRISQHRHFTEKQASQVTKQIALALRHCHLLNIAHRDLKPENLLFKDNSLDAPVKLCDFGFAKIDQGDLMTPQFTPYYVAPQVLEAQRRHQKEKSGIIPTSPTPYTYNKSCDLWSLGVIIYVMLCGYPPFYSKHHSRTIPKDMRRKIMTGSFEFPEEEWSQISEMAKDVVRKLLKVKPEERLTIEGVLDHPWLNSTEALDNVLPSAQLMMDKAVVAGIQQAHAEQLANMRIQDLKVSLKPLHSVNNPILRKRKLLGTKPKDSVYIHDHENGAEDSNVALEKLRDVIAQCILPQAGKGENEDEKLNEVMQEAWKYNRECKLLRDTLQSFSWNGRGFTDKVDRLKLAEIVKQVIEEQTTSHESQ

[4] = molecular target: T4, panel of 468 kinases (Homo sapiens, UniProt Q99640); details: PKMYT1; 1 μM; read-out: % control
T4 construct: purchased KINOMEscan (ScanMAX) service
T4 sequence (Q99640 1-499): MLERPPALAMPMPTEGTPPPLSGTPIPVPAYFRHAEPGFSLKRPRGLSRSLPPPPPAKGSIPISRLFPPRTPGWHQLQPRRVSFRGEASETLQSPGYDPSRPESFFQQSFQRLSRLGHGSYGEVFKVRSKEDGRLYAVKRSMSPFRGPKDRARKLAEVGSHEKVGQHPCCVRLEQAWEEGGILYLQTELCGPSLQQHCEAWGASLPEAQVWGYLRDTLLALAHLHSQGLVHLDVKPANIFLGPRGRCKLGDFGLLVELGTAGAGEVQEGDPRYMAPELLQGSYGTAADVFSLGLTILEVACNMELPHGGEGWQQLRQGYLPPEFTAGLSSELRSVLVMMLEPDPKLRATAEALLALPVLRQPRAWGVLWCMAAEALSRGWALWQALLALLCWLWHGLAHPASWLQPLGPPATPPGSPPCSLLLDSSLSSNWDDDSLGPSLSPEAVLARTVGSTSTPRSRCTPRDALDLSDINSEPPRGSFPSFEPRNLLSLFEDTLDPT

[5] = molecular target: T5, panel of 468 kinases (Homo sapiens, UniProt Q9HBH9); details: MKNK2; 1 μM; read-out: % control
T5 construct: purchased KINOMEscan (ScanMAX) service
T5 sequence (Q9HBH9 whole entry): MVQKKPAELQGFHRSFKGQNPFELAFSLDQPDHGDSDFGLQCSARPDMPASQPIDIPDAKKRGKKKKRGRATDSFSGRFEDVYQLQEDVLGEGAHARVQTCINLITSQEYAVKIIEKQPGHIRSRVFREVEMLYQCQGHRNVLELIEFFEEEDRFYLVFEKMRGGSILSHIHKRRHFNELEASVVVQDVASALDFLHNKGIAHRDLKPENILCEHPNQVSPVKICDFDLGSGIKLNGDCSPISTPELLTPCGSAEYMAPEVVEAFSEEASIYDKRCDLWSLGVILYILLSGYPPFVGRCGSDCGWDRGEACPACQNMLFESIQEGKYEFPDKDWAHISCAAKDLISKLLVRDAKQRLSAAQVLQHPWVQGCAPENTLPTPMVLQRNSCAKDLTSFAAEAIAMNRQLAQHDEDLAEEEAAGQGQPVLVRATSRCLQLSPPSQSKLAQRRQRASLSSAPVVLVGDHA

[6] = molecular target: T6, panel of 468 kinases (Homo sapiens, UniProt Q9UHD2); details: TBK1; 1 μM; read-out: % control
T6 construct: purchased KINOMEscan (ScanMAX) service
T6 sequence (Q9UHD2 1-729): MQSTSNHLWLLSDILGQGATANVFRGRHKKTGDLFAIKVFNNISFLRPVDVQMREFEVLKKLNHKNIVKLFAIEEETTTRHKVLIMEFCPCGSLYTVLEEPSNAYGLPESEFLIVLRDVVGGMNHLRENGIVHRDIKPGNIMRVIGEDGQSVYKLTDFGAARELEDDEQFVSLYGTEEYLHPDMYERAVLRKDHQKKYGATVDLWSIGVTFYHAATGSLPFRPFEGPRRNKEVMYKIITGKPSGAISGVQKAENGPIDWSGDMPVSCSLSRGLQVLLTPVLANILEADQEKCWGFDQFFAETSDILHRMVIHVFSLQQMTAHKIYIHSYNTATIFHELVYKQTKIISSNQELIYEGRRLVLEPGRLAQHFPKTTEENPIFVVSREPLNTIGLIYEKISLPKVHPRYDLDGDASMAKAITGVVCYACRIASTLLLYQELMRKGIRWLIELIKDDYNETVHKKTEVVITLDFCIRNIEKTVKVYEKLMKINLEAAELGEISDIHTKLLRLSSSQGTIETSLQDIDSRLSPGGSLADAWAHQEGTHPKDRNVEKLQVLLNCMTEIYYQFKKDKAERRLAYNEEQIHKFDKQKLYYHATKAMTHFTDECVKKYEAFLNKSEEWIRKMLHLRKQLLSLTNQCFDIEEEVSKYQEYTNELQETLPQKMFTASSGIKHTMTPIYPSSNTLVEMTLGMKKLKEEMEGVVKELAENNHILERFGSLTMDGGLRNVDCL

| SMILES | remaining binding at 1 µM [1] | remaining binding at 1 µM [2] | remaining binding at 1 µM [3] | remaining binding at 1 µM [4] | remaining binding at 1 µM [5] | remaining binding at 1 µM [6] |
| --- | --- | --- | --- | --- | --- | --- |
| CNc1nc(Nc2ccc(S(=O)(=O)N3CCC(N4CCOCC4)CC3)cc2OC)nc2[nH]cc(Cl)c12 [Compound 12, 5-chloro-N2-(2-methoxy-4-((4-morpholinopiperidin-1-yl)sulfonyl)phenyl)-N4-methyl-7H-pyrrolo[2,3-d]pyrimidine-2,4-diamine] | 100% | 100% | 67% | 100% | 57% | 95% |
| CNc1nc(Nc2ccc(C(=O)N3CCC(N4CCOCC4)CC3)c3c2OCO3)nc2[nH]cc(Cl)c12 [Compound 75, (7-((5-chloro-4-(methylamino)-7H-pyrrolo[2,3-d]pyrimidin-2-yl)amino)benzo[d][1,3]dioxol-4-yl)(4-morpholinopiperidin-1-yl)methanone] | 23% | 100% | 43% | 100% | 10% | 34% |
| CNc1nc(Nc2ccc(P3(=O)CCN(C4CCOCC4)CC3)cc2OC)nc2[nH]cc(Cl)c12 [Compound 77, 4-(4-((5-chloro-4-(methylamino)-7H-pyrrolo[2,3-d]pyrimidin-2-yl)amino)-3-methoxyphenyl)-1-(tetrahydro-2H-pyran-4-yl)-1,4-azaphosphinane 4-oxide] | 96% | 100% | 46% | 100% | 31% | 85% |
